Source: patent US20250084453A1, “SYSTEMS, COMPOSITIONS AND METHODS FOR IDENTIFYING E3 LIGASE SUBSTRATES BY UBIQUITIN BIOTINYLATION” (The Broad Institute, Inc., priority 2022, published 2025)

Tested on: CRBN E3 ligase
Assay: Mass spectrometry of streptavidin pulldown of biotinylated ubiquitinated proteins, CRBN-BirA 293T cells with Avi-Ub or A3-Ub
Format: cell-based, human
Experimental: The cells were either treated or untreated with carfilzomib (0.4 μM) for 1 hour and were either treated or untreated with the CRBN-IMiD modifying agent CC-885 (1 μM) for another hour. […] As discussed above in Example 1, the GSPT1 substrate of BirA-tagged CRBN is expressed endogenously in 293T cells.
For such MS analyses, 50 μl of resuspended streptavidin beads were incubated with 1 ml of cell lysates (3 mg/ml) at 4° C. overnight. On the next day, the beads were pelleted (400×g, 1 minute), washed two times with 2% SDS (2% SDS, 25 mM Tris-HCl pH 7.5), and then washed three times with 6M urea (6M urea, 50 mM Tris-HCl pH 8). Each wash was performed by rotating the samples at room temperature for at least five minutes. Following the washes, the beads were resuspended in 90 μl of 2M urea, to which 10 μl of 0.1M TCEP (tris(2-carboxyethyl)phosphine, reducing agent) was added for a final concentration of 10 mM TCEP. The samples were agitated at 37° C. for 30 minutes to allow for protein reduction. Next, 10 μl of 0.165 M IAA, (iodoacetamide, alkylating agent) was added to a final concentration of 15 mM IAA. The samples were agitated in the dark at room temperature for 45 minutes. Thereafter, 1 μg of trypsin/LysC (Promega, Trypsin/Lys-C Mix, Mass Spec Grade, V5071) was added to each sample, and the samples were agitated for 3-4 hours at 37° C. Subsequently, 0.5 μg of trypsin/LysC (Promega, Trypsin/Lys-C Mix, Mass Spec Grade, V5071) was added to each sample, and the samples were agitated overnight at 37° C. On the next day, the supernatant containing the digested peptides was collected. The beads were washed two times with HPLC-grade water and were combined with the previously collected supernatant. Samples were centrifuged at 21,000×g for 10 minutes, and the clarified supernatant at the top was saved. Samples were acidified by the addition of 50% formic acid to a final concentration of 2%. Samples were vacuum dried (Speedvac) overnight and kept at −80° C. until ready for analysis by MS. […]
The preparation of cellular lysate was as described above for Cell Lysis, except that the RIPA buffer was supplemented with COMPLETE™ EDTA-free protease inhibitor cocktail (Roche; 04693159001; 1 tablet per 10 ml of buffer), benzonase (Millipore; E1014; 1 μl per 10 ml of buffer), 1.5 mM MgCl2, 1 mM EGTA, and 10 mM NEM (N-ethylmaleimide). For each sample, 1 ml of 3 mg/ml lysate was rotated overnight at 4° C. with 50 μl of resuspended streptavidin Sepharose beads (CYTIVA™; 17511301), which were pre-washed with RIPA lysis buffer 3 times. For all steps that required pelleting of beads, centrifugation was performed at 400×g for 1 minute. On the next day, streptavidin beads were pelleted, and the supernatant (a.k.a. flow-through) was either saved for analysis by Western blotting or was discarded.

[1] = Table 3 (head Avi-, text A3-Ub), DMSO 0
[2] = Table 3 (head Avi-, text A3-Ub), DMSO 3
[3] = Table 3 (head Avi-, text A3-Ub), DMSO 5
[4] = Table 3 (head Avi-, text A3-Ub), DMSO 6
[5] = Table 3 (head Avi-, text A3-Ub), DMSO 7
[6] = Table 3 (head Avi-, text A3-Ub), DMSO 9
[7] = Table 3 (head Avi-, text A3-Ub), DMSO 15

Cc1ccc(NC(=O)NCc2ccc3c(c2)CN(C2CCC(=O)NC2=O)C3=O)cc1Cl (stereo not drawn) [CC-885]
Most upregulated proteins in streptavidin pulldown versus DMSO (A3-Ub, triplicates, log2 FC and p-value (limma), FIG. 9): GSPT1 and GSPT2 | # of PSMs, GSPT1 (Table 2, Avi-Ub, DMSO 0): 25 | # of PSMs, GSPT2 (Table 2, Avi-Ub, DMSO 0): 13 | # of PSMs, POLR2A (Table 2, Avi-Ub, DMSO 9): 11 | # of PSMs, PSMD4 (Table 2, Avi-Ub, DMSO 10): 11 | # of PSMs, VCL (Table 2, Avi-Ub, DMSO 10): 56 | # of PSMs, SMC1A (Table 2, Avi-Ub, DMSO 12): 13 | # of PSMs, H2AFV (Table 2, Avi-Ub, DMSO 14): 14 | # of PSMs, CTNNA1 (Table 2, Avi-Ub, DMSO 15): 12 | # of PSMs, gene symbol printed as image P00007 (Table 2, Avi-Ub, DMSO 16): 18 | # of PSMs, DYNC1H1 (Table 2, Avi-Ub, DMSO 17): 13 | # of PSMs, RPS3 (Table 2, Avi-Ub, DMSO 17): 21 | # of PSMs, HSPA1B; HSPA1A (Table 2, Avi-Ub, DMSO 18): 18 | # of PSMs, HIST2H2AC (Table 2, Avi-Ub, DMSO 19): 18 | # of PSMs, UBE2K (Table 2, Avi-Ub, DMSO 19): 17 | # of PSMs, CTNNB1 (Table 2, Avi-Ub, DMSO 20): 15 | # of PSMs, HSPA8 (Table 2, Avi-Ub, DMSO 20): 13 | # of PSMs, MCCC1 (Table 2, Avi-Ub, DMSO 20): 16 | # of PSMs, PRPF8 (Table 2, Avi-Ub, DMSO 20): 19 | # of PSMs, UBE2N (Table 2, Avi-Ub, DMSO 20): 14 | # of PSMs, VCP (Table 2, Avi-Ub, DMSO 20): 11 | # of PSMs, DSP (Table 2, Avi-Ub, DMSO 21): 14 | # of PSMs, gene symbol printed as image P00006 (Table 2, Avi-Ub, DMSO 21): 13 | # of PSMs, EEF2 (Table 2, Avi-Ub, DMSO 22): 13 | # of PSMs, HSP90AB1 (Table 2, Avi-Ub, DMSO 22): 15 | # of PSMs, gene symbol printed as image P00001 (Table 2, Avi-Ub, DMSO 22): 15 | # of PSMs, gene symbol printed as image P00003 (Table 2, Avi-Ub, DMSO 22): 14 | # of PSMs, AMOT (Table 2, Avi-Ub, DMSO 23): 19 | # of PSMs, HSP90AA1 (Table 2, Avi-Ub, DMSO 24): 13 | # of PSMs, PRKDC (Table 2, Avi-Ub, DMSO 24): 17 | # of PSMs, FASN (Table 2, Avi-Ub, DMSO 28): 17 | # of PSMs, USP9X (Table 2, Avi-Ub, DMSO 32): 21 | # of PSMs, UBA1 (Table 2, Avi-Ub, DMSO 34): 31 | # of PSMs, gene symbol printed as image P00004 (Table 2, Avi-Ub, DMSO 34): 30 | # of PSMs, gene symbol printed as image P00005 (Table 2, Avi-Ub, DMSO 36): 29 | # of PSMs, UBE2O (Table 2, Avi-Ub, DMSO 37): 23 | # of PSMs, UBA6 (Table 2, Avi-Ub, DMSO 39): 37 | # of PSMs, gene symbol printed as image P00002 (Table 2, Avi-Ub, DMSO 39): 33 | # of PSMs, PCCA (Table 2, Avi-Ub, DMSO 45): 41 | # of PSMs, ACACA (Table 2, Avi-Ub, DMSO 60): 52 | # of PSMs, PC (Table 2, Avi-Ub, DMSO 116): 104 | # of PSMs, ACACB [1]: 17 | # of PSMs, GSPT1 [1]: 30 | # of PSMs, GSPT2 [1]: 20 | # of PSMs, HIST1H1D [1]: 5 | # of PSMs, VCL [1]: 9 | # of PSMs, CCDC144A [2]: 10 | # of PSMs, DDX5 [2]: 5 | # of PSMs, HIST2H2BF [3]: 5 | # of PSMs, SPEN [3]: 9 | # of PSMs, HIST2H2BE [4]: 6 | # of PSMs, THAP5 [4]: 7 | # of PSMs, gene symbol printed as image P00009 [4]: 6 | # of PSMs, CCT8 [5]: 14 | # of PSMs, EEF1A1 [5]: 6 | # of PSMs, EEF2 [5]: 5 | # of PSMs, ENO1 [5]: 6 | # of PSMs, UBE2N [5]: 6 | # of PSMs, HIST1H4A . . . [6]: 9 | # of PSMs, HSP90AB1 [6]: 9 | # of PSMs, gene symbol printed as image P00010 (Table 3 (head Avi-, text A3-Ub), DMSO 10): 11 | # of PSMs, HSP90AA1 (Table 3 (head Avi-, text A3-Ub), DMSO 14): 12 | # of PSMs, HSPA1B; HSPA1A [7]: 6 | # of PSMs, HSPA8 [7]: 10 | # of PSMs, gene symbol printed as image P00008 (Table 3 (head Avi-, text A3-Ub), DMSO 23): 17 | # of PSMs, MCCC1 (Table 3 (head Avi-, text A3-Ub), DMSO 26): 24 | # of PSMs, ACACA (Table 3 (head Avi-, text A3-Ub), DMSO 71): 75 | # of PSMs, PCCA (Table 3 (head Avi-, text A3-Ub), DMSO 106): 103 | # of PSMs, PC (Table 3 (head Avi-, text A3-Ub), DMSO 155): 167
